Tests used:
[1] = target: T1, α1a-AR (Homo sapiens, UniProt P35348); assay: α1-Adrenergic receptor radio-ligand (125I-HEAT) binding assay, α1a subtype; settings: COS-7 cell membranes, 125I-HEAT
T1 construct: expressed in transfected cells; host or cells: COS-7
T1 sequence (P35348 1-466): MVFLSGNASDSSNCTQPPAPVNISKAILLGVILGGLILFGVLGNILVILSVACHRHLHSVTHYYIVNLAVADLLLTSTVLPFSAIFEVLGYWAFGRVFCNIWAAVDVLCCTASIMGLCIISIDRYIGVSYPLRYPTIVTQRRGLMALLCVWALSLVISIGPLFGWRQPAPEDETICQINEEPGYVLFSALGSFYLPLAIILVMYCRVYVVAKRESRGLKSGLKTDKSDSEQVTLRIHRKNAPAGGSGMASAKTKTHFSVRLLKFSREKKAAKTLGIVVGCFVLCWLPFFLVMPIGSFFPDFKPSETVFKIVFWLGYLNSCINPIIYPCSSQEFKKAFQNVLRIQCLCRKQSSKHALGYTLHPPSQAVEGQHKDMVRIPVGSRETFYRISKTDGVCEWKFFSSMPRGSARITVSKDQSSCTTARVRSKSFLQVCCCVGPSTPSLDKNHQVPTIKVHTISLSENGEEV
Summary of the method: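 Membranes from COS-7 cells transfected with the α1a-AR were incubated with 50 pM final ¹²⁵I-HEAT and test compound (1 pM–10 μM final, half-log steps) in Tris/EDTA/NaCl buffer pH 7.4 for 1 hr at rt. Bound radioactivity was counted after GF/C filtration, in triplicate.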

[2] = system: Prostatic Intraurethral Pressure (IUP); assay: Phenylephrine-induced prostatic IUP in an anesthetized canine model; assay type: in vivo; settings: anesthetized dog
Protocol: In-Vivo Evaluation of α1-Adrenergic Antagonists on Prostatic Intraurethral Pressure (IUP) and Mean Arterial Pressure (MAP) in an Anesthetized Canine Model
An anesthetized dog was fitted with a balloon catheter for the measurement of changes in prostatic IUP and with a non-invasive blood pressure (NIBP) cuff for determination of MAP.
The pressor effects of challenge doses (i.v.) of the α-adrenergic agonist phenylephrine upon IUP and MAP were measured before and at various time points after a single dose (i.v.) of an α-adrenergic antagonist test compound (Compound 69) of the present invention.
Each treatment group was dosed with a test compound (0.01, 0.03, 0.1 and 0.5 mg/kg) in four separate experiments. The first challenge dose of phenylephrine was administered 30 mins prior to the test compound dose and at 30 min intervals thereafter for a total time period of 5 hrs (i.e at time minus 30 mins, time plus 30 mins, 1 hr, 1.5 hrs, 2 hrs, 2.5 hrs, 3 hrs, 3.5 hrs, 4 hrs, 4.5 hrs and 5 hrs).
The animals were fasted overnight, anesthetized with propofol (4 mg/kg IV or to effect), then intubated and anesthesia maintained using inhalation isoflurane (1-2% in oxygen at a flow rate of 2 l/min) with animals breathing spontaneously.
A 7F Fogarty balloon catheter lubricated with a water-soluble jelly was inserted into the urethra and advanced into the bladder (approximately 40 cm). The balloon was inflated with approximately water (0.2 mL). The catheter was slowly withdrawn from the bladder to just past the point of first resistance from the bladder neck in order to position the balloon within the prostatic urethra. The balloon was then inflated to approximately 0.7 mL. The balloon port of the catheter was connected to a Gould Statham pressure transducer, the output of which was connected to the pressure input of a Physio Control VSM1 Patient Monitor.
A test compound was administered via the cephalic vein using an appropriately sized IV catheter (Surflo, Terumo Medical Corporation or equivalent).
Prior to test compound administration, IUP and MAP responses to an individualized dose of phenylephrine (either 10 or 15 μg/kg IV, depending on the individual animal's response) was repeated 2 to 3 times to establish a baseline response. After test compound administration, the individualized phenylephrine dose was administered to each animal at 30 minute intervals over a period of 5 hours.
Data for phenylephrine-induced changes in IUP and MAP were tabulated for each treatment group and each experiment. A mean value and standard deviation for the phenylephrine-induced changes to the effect of a test compound on IUP and MAP at each dose was calculated and tabulated for each treatment group over the length of the 5.5 hour study.

Question: What does the source list for `COc1ccc(S(=O)(=O)N[C@H]2CC[C@@H](N3CCN(c4ccccc4OCC(F)(F)F)CC3)CC2)cc1OC` [Cpd 69, 3,4-Dimethoxy-N-cis-(4-{4-[2-(2,2,2-trifluoro-ethoxy)-phenyl]-piperazin-1-yl}-cyclohexyl)-benzenesulfonamide]?
Answer: Ki [1]: 1.2 nM; IUP, normalized % of baseline (mean) ([2]; 0.01 mg/kg i.v., 0 hrs (baseline)): 100%; IUP, normalized % of baseline (mean) ([2]; 0.01 mg/kg i.v., 0.5 hrs after dose): 78.1%; IUP, normalized % of baseline (mean) ([2]; 0.01 mg/kg i.v., 1 hrs after dose): 81.9%; IUP, normalized % of baseline (mean) ([2]; 0.01 mg/kg i.v., 2 hrs after dose): 83.6%; IUP, normalized % of baseline (mean) ([2]; 0.01 mg/kg i.v., 3 hrs after dose): 83.3%; IUP, normalized % of baseline (mean) ([2]; 0.01 mg/kg i.v., 4 hrs after dose): 83.0%; IUP, normalized % of baseline (mean) ([2]; 0.01 mg/kg i.v., 5 hrs after dose): 84.5%; IUP, normalized % of baseline (mean) ([2]; 0.03 mg/kg i.v., 0 hrs (baseline)): 100%; IUP, normalized % of baseline (mean) ([2]; 0.03 mg/kg i.v., 0.5 hrs after dose): 64.8%; IUP, normalized % of baseline (mean) ([2]; 0.03 mg/kg i.v., 1 hrs after dose): 64.8%; IUP, normalized % of baseline (mean) ([2]; 0.03 mg/kg i.v., 1.5 hrs after dose): 70.8%; IUP, normalized % of baseline (mean) ([2]; 0.03 mg/kg i.v., 2 hrs after dose): 71.1%; IUP, normalized % of baseline (mean) ([2]; 0.03 mg/kg i.v., 2.5 hrs after dose): 79.1%; IUP, normalized % of baseline (mean) ([2]; 0.03 mg/kg i.v., 3 hrs after dose): 81.1%; IUP, normalized % of baseline (mean) ([2]; 0.03 mg/kg i.v., 3.5 hrs after dose): 81.6%; IUP, normalized % of baseline (mean) ([2]; 0.03 mg/kg i.v., 4 hrs after dose): 84.8%; IUP, normalized % of baseline (mean) ([2]; 0.03 mg/kg i.v., 4.5 hrs after dose): 83.5%; IUP, normalized % of baseline (mean) ([2]; 0.03 mg/kg i.v., 5 hrs after dose): 83.8%; IUP, normalized % of baseline (mean) ([2]; 0.1 mg/kg i.v., 0 hrs (baseline)): 100%; IUP, normalized % of baseline (mean) ([2]; 0.1 mg/kg i.v., 0.5 hrs after dose): 39.5%; IUP, normalized % of baseline (mean) ([2]; 0.1 mg/kg i.v., 1 hrs after dose): 48.4%; IUP, normalized % of baseline (mean) ([2]; 0.1 mg/kg i.v., 1.5 hrs after dose): 56.3%; IUP, normalized % of baseline (mean) ([2]; 0.1 mg/kg i.v., 2 hrs after dose): 61.3%; IUP, normalized % of baseline (mean) ([2]; 0.1 mg/kg i.v., 2.5 hrs after dose): 67.1%; IUP, normalized % of baseline (mean) ([2]; 0.1 mg/kg i.v., 3 hrs after dose): 69.9%; IUP, normalized % of baseline (mean) ([2]; 0.1 mg/kg i.v., 3.5 hrs after dose): 75.2%; IUP, normalized % of baseline (mean) ([2]; 0.1 mg/kg i.v., 4 hrs after dose): 78.8%; IUP, normalized % of baseline (mean) ([2]; 0.1 mg/kg i.v., 4.5 hrs after dose): 74.2%; IUP, normalized % of baseline (mean) ([2]; 0.1 mg/kg i.v., 5 hrs after dose): 77.3%; IUP, normalized % of baseline (mean) ([2]; 0.5 mg/kg i.v., 0 hrs (baseline)): 100%; IUP, normalized % of baseline (mean) ([2]; 0.5 mg/kg i.v., 0.5 hrs after dose): 17.4%; IUP, normalized % of baseline (mean) ([2]; 0.5 mg/kg i.v., 1 hrs after dose): 16.1%; IUP, normalized % of baseline (mean) ([2]; 0.5 mg/kg i.v., 1.5 hrs after dose): 27.0%; IUP, normalized % of baseline (mean) ([2]; 0.5 mg/kg i.v., 2 hrs after dose): 29.1%; IUP, normalized % of baseline (mean) ([2]; 0.5 mg/kg i.v., 2.5 hrs after dose): 36.1%; IUP, normalized % of baseline (mean) ([2]; 0.5 mg/kg i.v., 3 hrs after dose): 38.8%; IUP, normalized % of baseline (mean) ([2]; 0.5 mg/kg i.v., 3.5 hrs after dose): 45.5%; IUP, normalized % of baseline (mean) ([2]; 0.5 mg/kg i.v., 4 hrs after dose): 46.4%; IUP, normalized % of baseline (mean) ([2]; 0.5 mg/kg i.v., 4.5 hrs after dose): 48.0%; IUP, normalized % of baseline (mean) ([2]; 0.5 mg/kg i.v., 5 hrs after dose): 54.4%

From patent US20060173015A1, “Cyclohexyldiamines as selective alpha 1a/1d adrenoreceptor antagonists for the treatment of benign prostatic hypertrophy and lower urinary tract symptoms” (priority 2004, published 2006)
